The source of these data is patent EP0340778A2, “Prodrugs of 2',3'- Didehydro-2',3'-Dideoxynucleosides” (Bristol-Myers Squibb Company, priority 1988, dated 1989).

The first experiment has as its system HIV (LAV strain). The experiment in a line: anti-HIV/LAV activity in cultures of CEM-F cells, p-24 gag protein enzyme capture assay (ELISA). It is filed as cell-based. As to conditions: Human immunodeficiency virus 1, CCRF-CEM, 192 h, read-out: ID₅₀. As for the experimental part: The anti-HIV/LAV activity of several compounds representative of this invention and of d4T for comparison was measured in cultures of CEM-F cells. The CEM cells were infected with approximately 30 TCID₅₀ (50% tissue culture infectious dose) of HIV (LAV strain). The cells were then incubated for 45 min 37°C. The test compounds, in culture medium, were added at various concentrations to the infected cells and then incubated for a further 8 days. After 8 days the antiviral activity was evaluated in the culture media supernatant for p-24 gag protein by an enzyme capture assay (ELISA). The antiviral activity was expressed as the dose which inhibits 50% of the virus expression (ID₅₀ in µM) as detected by the assay described.
Turning to `CC(=O)OC[C@@H]1C=C[C@H](n2cc(C)c(=O)[nH]c2=O)O1` [Example 1, 5′-O-Acetyl-2′,3′-didehydro-2′,3′-dideoxythymidine], the IC50 turned out to be 3200 nM.

`COCC(=O)OCC1C=CC(n2cc(C)c(=O)[nH]c2=O)O1` (stereo not drawn) [Example 3, 5′-O-Methoxyacetyl-2′,3′-didehydro-2′,3′-dideoxythymidine]: the IC50 is 400 nM.

For the molecule `Cc1cn([C@H]2C=C[C@@H](COC(=O)C(C)(C)C)O2)c(=O)[nH]c1=O` [Example 4, 5′-O-Pivaloyl-2′,3′-didehydro-2′,3′-dideoxythymidine], the IC50 amounted to 4800 nM.

For `COC(=O)OC[C@@H]1C=C[C@H](n2cc(C)c(=O)[nH]c2=O)O1` [Example 5, 5′-O-Methoxycarbonyl-2′,3′-didehydro-2′,3′-dideoxythymidine], the IC50 was found to be 3200 nM.

Turning to `Cc1cn([C@H]2C=C[C@@H](COC(=O)OC3CCCCC3)O2)c(=O)[nH]c1=O` [Example 6, 5′-O-Cyclohexyloxycarbonyl-2′,3′-didehydro-2′,3′-dideoxy-thymidine], the IC50 came out at 600 nM.

Take `Cc1cn(C2C=CC(COC(=O)c3ccccc3)O2)c(=O)[nH]c1=S` (stereo not drawn) [Example 8, 5′-O-Benzoyl-2′,3′-dihydro-2′,3′-dideoxy-4-thio-thymidine]: the IC50 amounted to 500 nM.

As for `Cc1cn([C@H]2C=C[C@@H](CO)O2)c(=O)[nH]c1=O` [d4T, 2′,3′-didehydro-2′,3′-dideoxythymidine, reference compound], the IC50 is 200 nM.

Staying with this experiment, now noted: Human immunodeficiency virus 1, CCRF-CEM, 192 h; dose which inhibits 50% of the virus expression; CEM cells infected with approximately 30 TCID₅₀ of HIV (LAV strain); 8 days incubation with compound; p-24 gag protein in culture media supernatant; read-out: ID₅₀.
For `O=C(OC[C@@H]1C=C[C@H](n2ccc(=S)[nH]c2=O)O1)c1ccccc1` [Example 11, 5′-O-Benzoyl-2′,3′-didehydro-2′,3′-dideoxy-4-thio-uridine], the IC50 was 500 nM.

Take `Nc1ccn([C@H]2C=C[C@@H](COC(=O)c3ccccc3)O2)c(=O)n1` [Example 12, 5′-O-Benzoyl-2′,3′-didehydro-2′,3′dideoxycytidine]: the IC50 came out at 100 nM.
